{"source": "patent US20240269139A1", "about": "“COMPOUNDS FOR TARGETED PROTEIN DEGRADATION OF KINASES” (DANA-FARBER CANCER INSTITUTE, INC., priority 2020, published 2024)", "format_in_all_cases": "cell-based", "key": {"[1]": {"target": "protein kinases (human kinome) (Homo sapiens, UniProt O43683)", "sequence (O43683 whole entry)": "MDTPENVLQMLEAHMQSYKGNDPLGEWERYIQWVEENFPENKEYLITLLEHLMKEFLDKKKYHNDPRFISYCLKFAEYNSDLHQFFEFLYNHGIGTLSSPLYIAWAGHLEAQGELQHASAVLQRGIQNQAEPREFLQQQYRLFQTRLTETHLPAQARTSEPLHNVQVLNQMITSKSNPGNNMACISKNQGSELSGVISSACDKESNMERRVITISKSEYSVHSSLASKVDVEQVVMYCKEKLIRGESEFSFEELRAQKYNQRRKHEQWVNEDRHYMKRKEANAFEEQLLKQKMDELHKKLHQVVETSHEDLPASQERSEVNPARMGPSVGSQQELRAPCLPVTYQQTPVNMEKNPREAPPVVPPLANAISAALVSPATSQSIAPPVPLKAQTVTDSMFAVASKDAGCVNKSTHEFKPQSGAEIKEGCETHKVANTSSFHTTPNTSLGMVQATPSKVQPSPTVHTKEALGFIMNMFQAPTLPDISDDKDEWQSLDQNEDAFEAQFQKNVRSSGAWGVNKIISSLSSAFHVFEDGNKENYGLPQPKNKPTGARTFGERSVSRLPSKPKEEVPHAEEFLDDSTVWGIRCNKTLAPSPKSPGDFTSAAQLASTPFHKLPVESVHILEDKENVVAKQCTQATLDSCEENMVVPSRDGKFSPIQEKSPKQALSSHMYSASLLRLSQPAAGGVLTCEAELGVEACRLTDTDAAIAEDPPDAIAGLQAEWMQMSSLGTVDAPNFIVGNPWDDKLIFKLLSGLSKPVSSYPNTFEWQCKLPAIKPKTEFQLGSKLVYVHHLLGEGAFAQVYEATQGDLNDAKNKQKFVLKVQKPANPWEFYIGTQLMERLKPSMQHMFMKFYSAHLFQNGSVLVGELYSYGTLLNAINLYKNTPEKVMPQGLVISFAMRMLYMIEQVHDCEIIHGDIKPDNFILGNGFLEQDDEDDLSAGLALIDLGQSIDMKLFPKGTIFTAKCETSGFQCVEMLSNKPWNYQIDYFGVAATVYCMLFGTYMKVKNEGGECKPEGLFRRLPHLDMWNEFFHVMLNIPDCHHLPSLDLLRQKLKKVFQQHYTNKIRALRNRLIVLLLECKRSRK", "settings": "for logFC: BUB1 (O43683); for logFC BUB1 (O43683): direction down"}, "[2]": {"target": "protein kinases (human kinome) (Homo sapiens, UniProt P53667)", "sequence (P53667 whole entry)": "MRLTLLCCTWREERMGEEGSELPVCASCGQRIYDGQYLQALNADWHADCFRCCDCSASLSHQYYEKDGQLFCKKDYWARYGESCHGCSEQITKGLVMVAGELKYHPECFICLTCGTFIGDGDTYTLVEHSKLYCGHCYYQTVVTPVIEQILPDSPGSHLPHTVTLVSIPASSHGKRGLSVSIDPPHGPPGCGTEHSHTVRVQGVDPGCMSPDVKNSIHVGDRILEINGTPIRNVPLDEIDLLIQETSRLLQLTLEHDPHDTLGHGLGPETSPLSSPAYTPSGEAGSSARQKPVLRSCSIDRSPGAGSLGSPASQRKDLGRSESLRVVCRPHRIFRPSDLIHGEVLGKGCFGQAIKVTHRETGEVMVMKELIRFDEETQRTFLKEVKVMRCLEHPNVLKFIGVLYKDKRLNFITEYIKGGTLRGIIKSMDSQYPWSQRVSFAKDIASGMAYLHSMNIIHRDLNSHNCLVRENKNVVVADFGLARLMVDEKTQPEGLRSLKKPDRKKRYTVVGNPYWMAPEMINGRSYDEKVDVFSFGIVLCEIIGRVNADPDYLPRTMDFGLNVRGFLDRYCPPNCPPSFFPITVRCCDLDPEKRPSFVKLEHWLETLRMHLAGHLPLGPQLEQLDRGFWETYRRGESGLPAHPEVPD", "settings": "LIMK1 (P53667-1)"}, "[3]": {"target": "protein kinases (human kinome) (Homo sapiens, UniProt P07947)", "sequence (P07947 whole entry)": "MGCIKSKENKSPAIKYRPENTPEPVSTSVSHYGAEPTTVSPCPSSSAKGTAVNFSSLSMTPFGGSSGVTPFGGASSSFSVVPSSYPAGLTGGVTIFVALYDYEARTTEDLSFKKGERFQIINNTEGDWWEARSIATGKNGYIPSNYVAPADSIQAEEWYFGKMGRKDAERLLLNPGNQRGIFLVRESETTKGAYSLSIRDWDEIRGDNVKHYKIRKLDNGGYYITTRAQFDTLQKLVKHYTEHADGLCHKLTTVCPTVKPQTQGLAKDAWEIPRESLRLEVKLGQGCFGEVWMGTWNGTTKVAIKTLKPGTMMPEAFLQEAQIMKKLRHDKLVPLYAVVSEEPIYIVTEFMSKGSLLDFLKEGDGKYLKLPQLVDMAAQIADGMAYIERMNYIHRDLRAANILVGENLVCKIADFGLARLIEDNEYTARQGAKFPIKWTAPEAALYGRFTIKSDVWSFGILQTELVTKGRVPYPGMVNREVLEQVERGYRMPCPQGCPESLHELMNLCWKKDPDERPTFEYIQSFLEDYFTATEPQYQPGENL", "settings": "YES1 (P07947)"}, "[4]": {"target": "protein kinases (human kinome) (Homo sapiens, UniProt P42684)", "sequence (P42684 whole entry)": "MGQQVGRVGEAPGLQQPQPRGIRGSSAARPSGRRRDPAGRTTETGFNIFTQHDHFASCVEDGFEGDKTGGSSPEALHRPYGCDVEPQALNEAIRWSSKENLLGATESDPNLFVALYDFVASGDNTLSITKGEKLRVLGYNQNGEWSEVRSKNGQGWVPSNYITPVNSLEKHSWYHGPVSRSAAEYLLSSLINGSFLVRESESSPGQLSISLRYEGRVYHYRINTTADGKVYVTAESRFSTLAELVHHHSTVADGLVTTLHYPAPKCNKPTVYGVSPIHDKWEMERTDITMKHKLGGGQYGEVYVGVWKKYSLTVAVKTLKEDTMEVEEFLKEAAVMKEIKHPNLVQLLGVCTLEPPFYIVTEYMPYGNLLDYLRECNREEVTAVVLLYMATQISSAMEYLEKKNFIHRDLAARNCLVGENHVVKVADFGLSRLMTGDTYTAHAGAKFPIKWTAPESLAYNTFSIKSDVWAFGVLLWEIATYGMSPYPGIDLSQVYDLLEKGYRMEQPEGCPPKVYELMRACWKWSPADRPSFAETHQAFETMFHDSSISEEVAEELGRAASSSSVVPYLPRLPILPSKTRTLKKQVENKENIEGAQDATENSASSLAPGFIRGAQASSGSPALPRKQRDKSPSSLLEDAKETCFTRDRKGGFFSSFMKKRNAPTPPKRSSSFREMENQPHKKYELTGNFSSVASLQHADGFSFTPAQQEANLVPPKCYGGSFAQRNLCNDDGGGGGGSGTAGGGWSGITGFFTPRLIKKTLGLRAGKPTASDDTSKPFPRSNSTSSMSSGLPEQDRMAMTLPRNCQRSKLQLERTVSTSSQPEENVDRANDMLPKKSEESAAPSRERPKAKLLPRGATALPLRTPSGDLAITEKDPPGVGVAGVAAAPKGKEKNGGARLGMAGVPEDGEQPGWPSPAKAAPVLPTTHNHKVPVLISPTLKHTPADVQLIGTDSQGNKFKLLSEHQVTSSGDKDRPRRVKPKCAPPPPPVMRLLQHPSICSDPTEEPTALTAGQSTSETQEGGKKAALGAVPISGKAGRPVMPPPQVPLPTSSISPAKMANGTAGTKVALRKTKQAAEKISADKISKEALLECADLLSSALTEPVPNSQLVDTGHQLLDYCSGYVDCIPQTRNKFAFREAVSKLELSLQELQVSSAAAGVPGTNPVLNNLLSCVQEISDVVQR", "settings": "for logFC: ABL2 (P42684) protein abundance, degrader vs DMSO, down"}, "[5]": {"target": "protein kinases (human kinome) (Homo sapiens, UniProt Q16539)", "sequence (Q16539 whole entry)": "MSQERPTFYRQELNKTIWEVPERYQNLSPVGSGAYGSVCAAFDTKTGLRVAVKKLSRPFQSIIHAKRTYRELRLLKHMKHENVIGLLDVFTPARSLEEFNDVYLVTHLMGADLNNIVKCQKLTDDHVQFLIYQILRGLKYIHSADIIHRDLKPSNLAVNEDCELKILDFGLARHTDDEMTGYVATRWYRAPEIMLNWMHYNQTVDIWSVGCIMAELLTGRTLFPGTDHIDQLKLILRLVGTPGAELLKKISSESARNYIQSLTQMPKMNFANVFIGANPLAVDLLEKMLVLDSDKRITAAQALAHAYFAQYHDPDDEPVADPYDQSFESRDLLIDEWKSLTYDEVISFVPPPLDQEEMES", "settings": "for logFC MAPK14: MAPK14, accession Q16539, direction of change down"}, "[6]": {"target": "protein kinases (human kinome) (Homo sapiens, UniProt P51812)", "sequence (P51812 whole entry)": "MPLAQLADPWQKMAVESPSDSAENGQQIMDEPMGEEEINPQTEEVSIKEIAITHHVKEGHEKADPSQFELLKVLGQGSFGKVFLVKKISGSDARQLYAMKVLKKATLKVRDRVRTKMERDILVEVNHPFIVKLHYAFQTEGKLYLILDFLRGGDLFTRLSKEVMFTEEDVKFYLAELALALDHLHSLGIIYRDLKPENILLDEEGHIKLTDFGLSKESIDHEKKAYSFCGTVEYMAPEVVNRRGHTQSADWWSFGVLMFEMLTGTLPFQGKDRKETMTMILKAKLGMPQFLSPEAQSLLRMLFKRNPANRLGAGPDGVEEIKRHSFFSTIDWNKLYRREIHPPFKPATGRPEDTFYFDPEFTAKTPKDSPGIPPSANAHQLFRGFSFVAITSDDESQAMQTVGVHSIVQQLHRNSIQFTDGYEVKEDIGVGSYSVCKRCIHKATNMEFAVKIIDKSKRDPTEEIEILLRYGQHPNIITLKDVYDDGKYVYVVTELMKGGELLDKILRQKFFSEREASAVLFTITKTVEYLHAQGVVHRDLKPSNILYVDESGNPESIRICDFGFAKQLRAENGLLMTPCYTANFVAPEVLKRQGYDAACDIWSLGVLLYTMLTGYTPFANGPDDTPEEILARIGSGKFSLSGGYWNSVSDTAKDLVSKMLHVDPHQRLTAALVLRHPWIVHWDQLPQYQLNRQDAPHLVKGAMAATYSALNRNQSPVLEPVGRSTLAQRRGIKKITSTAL", "settings": "RPS6KA3 (P51812)"}, "[7]": {"settings": "experiment wp168, direction down"}}, "note": "Where “and” joins values, the source holds several entries; their conditions need not be identical. Identical values can stand only once. Like-named read-outs stand apart in the source and are kept apart here."}
{"molecule": "Cc1ccc(NC(=O)c2cccc(C(F)(F)F)c2)cc1N1Cc2cnc(Nc3ccc(N4CCN(Cc5cn(CCCCCOc6cccc7c6C(=O)N(C6CCC(=O)NC6=O)C7=O)nn5)CC4)nc3)nc2N(C)C1=O", "note": "(stereo not shown) [DB0646, N-(3-(7-((6-(4-((1-(5-((2-(2,6-Dioxopiperidin-3-yl)-1,3-dioxoisoindolin-4-yl)oxy)pentyl)-1H-1,2,3-triazol-4-yl)methyl)piperazin-1-v)pyridin-3-yl)amino)-1-methyl-2-oxo-1,4-dihydropyrimido[4,5-d]pyrimidin-3(2H)-yl)-4-methylphenyl)-3-(trifluoromethyl)benzamide]", "values": [{"measurement": "logFC", "setting": "[1]; experiment wp045", "result": "−0.3378"}, {"measurement": "logFC", "setting": "[1]; experiment wp117", "result": "−0.3423"}, {"measurement": "logFC", "setting": "[1]; experiment wp152", "result": "−0.4014"}, {"measurement": "logFC BUB1 (O43683)", "setting": "[1]; Experiment wp045", "result": "−0.3378"}, {"measurement": "logFC BUB1 (O43683)", "setting": "[1]; Experiment wp117", "result": "−0.3423"}, {"measurement": "logFC BUB1 (O43683)", "setting": "[1]; Experiment wp152", "result": "−0.4014"}, {"measurement": "BUB1 degradation", "setting": "[1]; MOLT-4 and MM.1S cell lines", "result": "degraded"}, {"measurement": "logFC LIMK1", "setting": "[2]; direction down, experiment wp045", "result": "−0.5293"}, {"measurement": "logFC LIMK1", "setting": "[2]; direction down, experiment wp103", "result": "−1.497"}, {"measurement": "logFC LIMK1", "setting": "[2]; direction down, experiment wp105", "result": "−0.5641"}, {"measurement": "logFC LIMK1", "setting": "[2]; direction down, experiment wp107", "result": "−0.9768"}, {"measurement": "logFC LIMK1", "setting": "[2]; direction down, experiment wp117", "result": "−1.412"}, {"measurement": "logFC LIMK1", "setting": "[2]; direction down, experiment wp160, 2 hr", "result": "−0.7376"}, {"measurement": "logFC LIMK1", "setting": "[2]; direction down, experiment wp160, 4 hr", "result": "−1.563"}, {"measurement": "logFC LIMK1", "setting": "[2]; direction down, experiment wp160, 8 hr", "result": "−2.36"}, {"measurement": "logFC LIMK1", "setting": "[2]; direction down, experiment wp172", "result": "−1.32"}, {"measurement": "logFC LIMK1", "setting": "[2]; experiment wp045, down", "result": "−0.5293"}, {"measurement": "logFC LIMK1", "setting": "[2]; experiment wp103, down", "result": "−1.497"}, {"measurement": "logFC LIMK1", "setting": "[2]; experiment wp105, down", "result": "−0.5641"}, {"measurement": "logFC LIMK1", "setting": "[2]; experiment wp107, down", "result": "−0.9768"}, {"measurement": "logFC LIMK1", "setting": "[2]; experiment wp117, down", "result": "−1.412"}, {"measurement": "logFC LIMK1", "setting": "[2]; experiment wp160, 2 hr, down", "result": "−0.7376"}, {"measurement": "logFC LIMK1", "setting": "[2]; experiment wp160, 4 hr, down", "result": "−1.563"}, {"measurement": "logFC LIMK1", "setting": "[2]; experiment wp160, 8 hr, down", "result": "−2.36"}, {"measurement": "logFC LIMK1", "setting": "[2]; experiment wp172, down", "result": "−1.32"}, {"measurement": "logFC", "setting": "[3]; experiment wp105", "result": "−0.3957"}, {"measurement": "logFC", "setting": "[3]; experiment wp105, direction down", "result": "−0.3957"}, {"measurement": "logFC", "setting": "[3]; experiment wp172", "result": "−0.471"}, {"measurement": "logFC", "setting": "[3]; experiment wp172, direction down", "result": "−0.471"}, {"measurement": "logFC", "setting": "[4]; 4 hr", "result": "−0.5029"}, {"measurement": "logFC", "setting": "[4]; 8 hr", "result": "−0.7288"}, {"measurement": "logFC", "setting": "[4]", "result": "−0.5941 and −0.5342 and −0.5362"}, {"measurement": "logFC ABL2 (P42684)", "setting": "[4]; Experiment wp045", "result": "−0.5941"}, {"measurement": "logFC ABL2 (P42684)", "setting": "[4]; Experiment wp107", "result": "−0.5342"}, {"measurement": "logFC ABL2 (P42684)", "setting": "[4]; experiment wp152", "result": "−0.5362"}, {"measurement": "logFC ABL2 (P42684)", "setting": "[4]; experiment wp160, 4 hr", "result": "−0.5029"}, {"measurement": "logFC ABL2 (P42684)", "setting": "[4]; experiment wp160, 8 hr", "result": "−0.7288"}, {"measurement": "logFC of MAPK14", "setting": "[5]; Accession Q16539, experiment wp172", "result": "−0.6469"}, {"measurement": "logFC", "setting": "[5]; MAPK14 (Q16539) protein abundance, degrader vs DMSO, down", "result": "−0.7793 and −0.6013"}, {"measurement": "logFC", "setting": "[5]; MAPK14 (Q16539), experiment wp107", "result": "−0.7601"}, {"measurement": "logFC", "setting": "[5]; MAPK14 (Q16539), experiment wp114", "result": "−0.5814"}, {"measurement": "logFC", "setting": "[5]; MAPK14 (Q16539), experiment wp117", "result": "−0.6392"}, {"measurement": "logFC", "setting": "[5]; MAPK14 (Q16539), experiment wp152", "result": "−0.7821"}, {"measurement": "logFC", "setting": "[5]; MAPK14 (Q16539), experiment wp160, 2 hr", "result": "−0.4404"}, {"measurement": "logFC", "setting": "[5]; MAPK14 (Q16539), experiment wp160, 4 hr", "result": "−0.7162"}, {"measurement": "logFC", "setting": "[5]; MAPK14 (Q16539), experiment wp160, 8 hr", "result": "−1.153"}, {"measurement": "logFC", "setting": "[5]; MAPK14 (Q16539), experiment wp172", "result": "−0.6469"}, {"measurement": "logFC MAPK14", "setting": "[5]; experiment wp045", "result": "−0.7793"}, {"measurement": "logFC MAPK14", "setting": "[5]; experiment wp103", "result": "−0.6013"}, {"measurement": "logFC MAPK14", "setting": "[5]; experiment wp107", "result": "−0.7601"}, {"measurement": "logFC MAPK14", "setting": "[5]; experiment wp114", "result": "−0.5814"}, {"measurement": "logFC MAPK14", "setting": "[5]; experiment wp117", "result": "−0.6392"}, {"measurement": "logFC MAPK14", "setting": "[5]; experiment wp152", "result": "−0.7821"}, {"measurement": "logFC MAPK14", "setting": "[5]; experiment wp160, 2 hr", "result": "−0.4404"}, {"measurement": "logFC MAPK14", "setting": "[5]; experiment wp160, 4 hr", "result": "−0.7162"}, {"measurement": "logFC MAPK14", "setting": "[5]; experiment wp160, 8 hr", "result": "−1.153"}, {"measurement": "logFC", "setting": "[6]; experiment wp160, 8 hr", "result": "−0.3332"}, {"measurement": "logFC", "setting": "[6]; experiment wp160, 8 hr, direction down", "result": "−0.3332"}]}
{"molecule": "Cc1ccc(NC(=O)c2cccc(C(F)(F)F)c2)cc1N1Cc2cnc(Nc3ccc(N4CCN(CCCOc5cccc6c5C(=O)N(C5CCC(=O)NC5=O)C6=O)CC4)nc3)nc2N(C)C1=O", "note": "(stereo not shown) [DB0662]", "values": [{"measurement": "logFC", "setting": "[1]; experiment wp168", "result": "−0.3382"}, {"measurement": "logFC BUB1 (O43683)", "setting": "[1]; Experiment wp168", "result": "−0.3382"}, {"measurement": "logFC LIMK1", "setting": "[2]; direction down, experiment wp168", "result": "−1.911"}, {"measurement": "logFC LIMK1", "setting": "[2]; experiment wp168, down", "result": "−1.911"}, {"measurement": "logFC", "setting": "[3]; experiment wp168", "result": "−0.8025"}, {"measurement": "logFC", "setting": "[3]; [7]", "result": "−0.8025"}, {"measurement": "logFC", "setting": "[4]", "result": "−1.207"}, {"measurement": "logFC ABL2 (P42684)", "setting": "[4]; Experiment wp168", "result": "−1.207"}, {"measurement": "logFC", "setting": "[5]; MAPK14 (Q16539), experiment wp168", "result": "−1.002"}, {"measurement": "logFC MAPK14", "setting": "[5]; experiment wp166", "result": "−1.002"}, {"measurement": "logFC", "setting": "[6]; experiment wp168", "result": "−0.452"}, {"measurement": "logFC", "setting": "[6]; [7]", "result": "−0.452"}]}
